The values below come from US8501792B2, “Treating cancer with desthiazolyl ritonavir” (priority 2008, dated 2013).

The test deals with Purified mammalian Hsp90. As to the kind of experiment: Hsp90 binding on CM-5 BIAcore chip (surface plasmon resonance). An excerpt: Inhibition of Hsp90 can be evaluated by surface plasmon resonance studies of a compound of formula I, using a CM-5 Biacore chip on which Hsp90 (Stressgen, Ann Arbor) has been immobilized. This method can also be used to evaluate the chaperoning activity of a compound of formula I by evaluation of luciferase refolding. See Examples 4 and 9.
Purified mammalian Hsp90 was attached to a CM-5 BIAcore chip through an NHS ester linkage. After attachment of the Hsp90 and blocking the chip with BSA, M1 drug or a 17-AAG control was circulated through a microfluidic circuit and change in refractive index was measured by quantification of the RU value for each drug concentration. In the case of the 17-AAG control the binding was saturable and based on the kon and koff measurements, the KD was estimated to be in the 1 microM range. […] This means that there are significant differences in the binding of M-1 and may indicate alteration of the Hsp90 structure.

As to `C=CCNC1=C2C[C@@H](C)C[C@H](OC)[C@H](O)[C@@H](C)/C=C(\C)[C@H](OC(N)=O)[C@@H](OC)/C=C\C=C(/C)C(=O)NC(=CC1=O)C2=O` [17-AAG], for the setting “RU value versus drug concentration, FIG. 11”, the “binding to Hsp90, saturability” value is reported as “saturable”. Also, the Kd (estimated from kon and koff measurements) was ~1 µM.

Broadly, the Kd is a measure of binding affinity in units of concentration.
